Data: patent publication EP0307279A2, “Use of (5-amino-2-(4-methyl-1-piperidinyl)phenyl)-(4-chlorophenyl)methanone as an antiviral agent” (FOURNIER INNOVATION ET SYNERGIE, priority 1987, dated 1989)

Tests used:
Assay type in all cases: cell-based
virus HIV 1 [1] = test: Protocol 1: pre-treatment of human lymphocytes before HIV 1 infection, reverse transcriptase activity in culture supernatant
Procedure: (§1) Pour chacun des trois protocoles qui suivent, on a préparé une solution mère de (5-amino-2-(4-méthyl-1-pipéridinyl)phényl)-(4-chlorophényl)-méthanone à 100 mg/l dans de l'eau physiologique contenant 9 g/l de chlorure de sodium et acidifiée à pH=3 par de l'acide chlorhydrique. La solution mère est ensuite diluée dans un milieu RPMI 1640 jusqu'à la concentration désirée. La solution ainsi obtenue est stérilisée par filtration sur membrane "MILLIPORE" ayant un diamètre moyen de pores de 0,22 m.
(§2) A partir de cellules T lymphoblastoïdes (lignée CEM) infectées par un virus HIV et donc susceptibles de produire ledit virus HIV, on recueille ce dernier par des moyens appropriés à partir d'un surnageant de culture desdites cellules.
(§3) Les cellules utilisées sont des lymphocytes de sujets normaux HIV négatifs isolés à partir du sang périphérique par gradient de Ficoll puis stimulés pendant trois jours par de la phytohémagglutinine p (en abrégé pHAp) avant leur utilisation.
Les lymphocytes sont ensuite cultivés dans le milieu RPMI 1640 contenant 10 % de sérum de veau foetal, 10 % d'interleukine II, 2 g/ml de polybrène, 1 % de glutamine, 1 % d'antibiotiques et une dilution au 1/2500 de sérum anti-interféron humain. […]

virus HIV 1 [2] = test: Protocol 2: treatment of human lymphocytes during HIV 1 adsorption, reverse transcriptase activity in culture supernatant
Procedure: as §1, §2, §3
(§4) Les lymphocytes sont ensuite cultivés dans le milieu RPMI 1640 contenant 10 % de sérum de veau foetal, 10 % d'interleukine II, 2 g/ml de polybrène, 1 % de glutamine, 1 % d'antibiotiques et une dilution au 1/2500 de sérum anti-interféron humain.
(§5) La production du virus HIV par des cellules T humaines traitées ou non par le produit a été régulièrement suivie par mesure de l'activité transcriptase inverse, représentative de la réplication virale, et présente dans 1 ml de surnageant de culture. On concentre 100 fois 1 ml de surnageant par ultracentrifugation puis on détermine l'activité enzymatique de cet échantillon dans 50 l d'un mélange réactionnel contenant 50 mM de tampon tris (hydroxyméthylaminométhane) de pH=7,9, 20 mM de KCl, 5 mM de MgCl₂, 1 mM de 1,4-dithiothréitol, 0,05 unité de densité optique par ml d'acide polyadénylique (5′), 0,05 unité de densité optique par ml d'acide oligodéoxythymidylique 12-18, 5 Ci de ³HTTP et 0,1 % de Triton X 100. Après une heure d'incubation à 37°C, les produits acido-insolubles sont précipités par de l'acide trichloracétique à 20 %, filtrés sur "MILLIPORE" 0,45 m, puis la radioactivité contenue dans ces produits de réaction est mesurée à l'aide d'un compteur à scintillation Kontron.
(§6) Les figures 1 à 3 qui représentent l'activité transcriptase inverse (A exprimée en cpm/ml) en fonction du temps (t exprimé en nombre de jours), comprennent chacune quatre courbes : T représentant l'activité transcriptase inverse dans la culture témoin. C₁ représentant l'activité transcriptase inverse pour la culture traitée par une dose de 0,1 g/ml de produit. C₂ représentant l'activité transcriptase inverse pour la culture traitée par une dose de 0,05 g/ml de produit, et C₃ représentant l'activité transcriptase inverse pour la culture traitée par une dose de 0,01 g/ml de produit. […]

virus HIV 1 [3] = test: Protocol 3: treatment of human lymphocytes after HIV 1 adsorption (post-treatment), reverse transcriptase activity in culture supernatant
Procedure: as §1, §2, §3, §4, §5, §6

SMILES: CC1CCN(c2ccc(N)cc2C(=O)c2ccc(Cl)cc2)CC1 [produit, (5-amino-2-(4-méthyl-1-pipéridinyl)phényl)-(4-chlorophényl)-méthanone]
- inhibition du pouvoir infectieux du virus HIV 1 (activité transcriptase inverse) (virus HIV 1 [1]; pre-treatment 18 h before infection, human lymphocytes, whatever the dose (0,1, 0,05, 0,01 µg/ml), figure 1): inhibition partielle
- retard dans l'apparition du pic de transcriptase inverse (virus HIV 1 [1]; pre-treatment, whatever the dose, versus untreated control culture): retard important
- inhibition du pouvoir infectieux du virus HIV 1 (virus HIV 1 [2]; during viral adsorption, 0,1 µg/ml (curve C1)): maximale
- inhibition du pouvoir infectieux du virus HIV 1 (virus HIV 1 [2]; during viral adsorption, 0,01 µg/ml (curve C3)): partielle
- inhibition du pouvoir infectieux du virus HIV 1 (virus HIV 1 [2]; during viral adsorption, 0,05 µg/ml (curve C2)): partielle
- inhibition du pouvoir infectieux du virus HIV 1 pour les cellules T humaines (virus HIV 1 [2]; product present during viral adsorption (1 h, 37°C), various concentrations (curves C1 to C3), figure 2): inhibition très significative
- inhibition de l'infection virale (virus HIV 1 [3]; post-treatment for three passages after adsorption, 0,1 µg/ml (curve C1), figure 3): très significative
- inhibition de l'infection virale (virus HIV 1 [3]; post-treatment, 0,01 µg/ml (curve C3)): partielle
- inhibition de l'infection virale (virus HIV 1 [3]; post-treatment, 0,05 µg/ml (curve C2)): partielle
- rapport des pics des courbes T et C₁ (activité transcriptase inverse) (virus HIV 1 [3]; post-treatment, 0,1 g/ml, control peak / treated peak): ~10
